The record followed here is article PMC6025150, “Synthesis, enzyme inhibitory kinetics mechanism and computational study of N-(4-methoxyphenethyl)-N-(substituted)-4-methylbenzenesulfonamides as novel therapeutic agents for Alzheimer’s disease” (PeerJ, 2018).

A word on the IC50: it is the concentration that gives 50% inhibition.

This test has as its target T1, acetylcholinesterase (from human erythrocytes) (Homo sapiens, UniProt P22303).
T1 construct: acetylcholinesterase (from human erythrocytes, purchased from Sigma-Aldrich, Seoul, Korea); purchased Sigma-Aldrich, Seoul, Korea; host or cells: human erythrocytes (natural source)
The test can be described thus: biochemical. Also noted: LogIC50 (best-fit value): unit not given here. How it is done: The inhibitory activities of synthesized compounds were determined spectrophotometrically using acetylthiocholine iodide as substrate by following the method of ([Ellman et al., 1961]). Briefly, The assay solution consisted of 180 µL of 50 mM Tris-HCl buffer, pH 7.7, containing (0.1 M sodium chloride and 0.02 M magnesium chloride) and 20 µL of enzyme (AChE, EC 3.1.1.7), acetylcholinesterase (from human erythrocytes, purchased from Sigma-Aldrich, Seoul, Korea) solution (50 U per well); increasing concentrations of test compounds (10 µL) were added to the assay solution and pre incubated for 30 min at 4 °C. After that 5,5′ Dithiobis (2 nitrobenzoic acid) (0.3 mM, 20 µL) and acetylthiocholine iodide (1.8 mM, 20 µL) were added to the reaction mixture and incubated at 37 °C for 10 min, followed by the measurement of absorbance at 412 nm. For non-enzymatic reaction, the assays were carried out with a blank containing all components except acetylcholinesterase. The assay measurements were measured at 412 nm using a micro plate reader (OPTI Max Tunable; Molecular Devices, Sunnyvale, CA, USA) having a wave-length range from 340–850 nm; for 96 well plates. The reaction rates were compared and percent inhibition was calculated due to the presence of tested inhibitors. […] Each concentration was analyzed in three independent experiments run in triplicate. The IC50 values were calculated by nonlinear regression using GraphPad Prism 5.0.
The % of Inhibition of Acetylcholinesterase was calculated as following: Inhibition%=B−S∕B×100. Here, the B and S are the absorbance’s for the blank and samples.

The mark [1] stands for this setting: each of three independent experiments, Raw Data of IC50 sheet, read-out: IC50, single experiment (converted).
The mark [2] stands for this setting: from human erythrocytes, mean ± SEM, read-out: Acetylcholinesterase IC50 ± SEM.
Setting [3] is: mean converted to uM, Raw Data of IC50 sheet, read-out: IC50.
[4] abbreviates: mean of three experiments, Raw Data of IC50 sheet, read-out: IC50 (Mean) (converted).
[5] abbreviates: values as printed in abstract and discussion, read-out: acetylcholinesterase IC50.
Where [6] appears, read: log(inhibitor) vs. response fit, single run, IC50 Raw Data sheet.
Where [7] appears, read: log(inhibitor) vs. response fit, single run, unit inferred, IC50 Raw Data sheet, read-out: IC50 (best-fit value) (converted).

SMILES strings stand for the structures. Values joined by “and” are separate entries in the source; they are usually repeats but may differ in a detail not shown here. Equal values may be shown once. Read-outs that look alike come from different tables or passages of the source.

T1 sequence (P22303 32-617 isoform P22303-2 limits assumed): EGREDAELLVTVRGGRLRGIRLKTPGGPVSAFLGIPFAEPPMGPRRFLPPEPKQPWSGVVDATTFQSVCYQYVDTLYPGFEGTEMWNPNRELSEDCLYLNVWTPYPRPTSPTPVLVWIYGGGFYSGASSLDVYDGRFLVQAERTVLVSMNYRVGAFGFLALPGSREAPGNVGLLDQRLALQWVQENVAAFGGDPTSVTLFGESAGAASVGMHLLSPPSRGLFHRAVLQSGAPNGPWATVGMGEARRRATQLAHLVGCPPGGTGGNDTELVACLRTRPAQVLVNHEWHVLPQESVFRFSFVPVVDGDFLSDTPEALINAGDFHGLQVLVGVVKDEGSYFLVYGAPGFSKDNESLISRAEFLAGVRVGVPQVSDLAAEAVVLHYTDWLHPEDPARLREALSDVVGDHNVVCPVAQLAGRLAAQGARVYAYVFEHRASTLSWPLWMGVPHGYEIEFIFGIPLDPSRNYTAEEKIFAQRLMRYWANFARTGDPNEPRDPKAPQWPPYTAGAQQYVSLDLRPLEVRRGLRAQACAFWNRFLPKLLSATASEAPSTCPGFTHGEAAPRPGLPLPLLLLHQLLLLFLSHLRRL

As for `CCN(CCc1ccc(OC)cc1)S(=O)(=O)c1ccc(C)cc1` [Compound 5a, N-Ethyl-N-(4-methoxyphenethyl)-4-methylbenzensulfonamide], the concentration for half-maximal inhibition (IC50) reads like this: under setting [1], 25 µM and 21 µM and 21.6 µM; under setting [2], 22.5 ± 1.23 µM; under setting [3], 22.5 µM; under setting [4], 22.5 µM.

With `CCCN(CCc1ccc(OC)cc1)S(=O)(=O)c1ccc(C)cc1` [Compound 5b, N-(4-Methoxyphenethyl)-4-methyl-N-(1-propyl)benzensulfonamide], the half-maximal inhibitory concentration (IC50) runs as follows: under setting [1], 4.77 µM and 3.7 µM and 4.01 µM; under setting [2], 4.16 ± 0.318 µM; under setting [3], 4.16 µM; under setting [4], 4.16 µM; under setting [5], 0.119 µM.

In the case of `CCCCN(CCc1ccc(OC)cc1)S(=O)(=O)c1ccc(C)cc1` [Compound 5d, N-(1-Butyl)-N-(4-methoxyphenethyl)-4-methylbenzensulfonamide], the concentration for half-maximal inhibition (IC50) under setting [1] is 0.0997 µM and 0.134 µM; the half-maximal inhibitory concentration (IC50) under setting [2] was found to be 0.12 ± 0.0102 µM; the half-inhibitory concentration (IC50) under setting [7] is 0.125 µM; the IC50 under setting [3] was 0.12 µM; the 50% inhibitory concentration (IC50) under setting [4] was 0.12 µM; the IC50 under setting [5] is 0.124 ± 0.021 µM. The “LogIC50 (best-fit value)” value under setting [6] is given as -1.347.

On to `CCCCCN(CCc1ccc(OC)cc1)S(=O)(=O)c1ccc(C)cc1` [Compound 5e, N-(4-Methoxyphenethyl)-4-methyl-N-(1-pentyl)benzensulfonamide], for which the IC50 runs as follows: under setting [1], 0.374 µM and 0.414 µM and 0.406 µM; under setting [2], 0.398 ± 0.0123 µM; under setting [7], 0.384 µM; under setting [3], 0.398 µM; under setting [4], 0.398 µM. Under setting [6], the “LogIC50 (best-fit value)” value was -0.8411.

Turning to `CCCCCCCN(CCc1ccc(OC)cc1)S(=O)(=O)c1ccc(C)cc1` [Compound 5f, N-(1-Heptyl)-N-(4-methoxyphenethyl)-4-methylbenzensulfonamide], the half-maximal inhibitory concentration (IC50) is 0.474 µM and 0.427 µM under setting [1]; 0.444 ± 0.015 µM under setting [2]; 0.432 µM under setting [7]; 0.444 µM under setting [3]; 0.444 µM under setting [4]. In addition, under setting [6], the “LogIC50 (best-fit value)” value is on record as -0.759.
